# Measurements from patent publication US5840859A, “(Aminostyryl)pyridinium compounds for radiolabelling cell membranes” (Research Corporation Technologies, Inc., priority 1996, dated 1998).
# Columns and labels:
# rat splenic lymphocytes [1] = test: Rat splenic lymphocyte survival after labeling (Trypan blue exclusion test); type: cell-based; details: Example 11, trypan blue
# Description: (§1) A 400 g Sprague-Dawley rat was sacrificed to remove the spleen (1.133 g). The spleen was perfused with phosphate buffered saline to remove the lymphocytes. The lymphocytes in 10 mL PBS were split into two equal portions and each portion was layered onto 5 mL of Lympholyte-Rat (Cedar Lane Laboratories Limited, Ontario, Canada) in a separate 15 mL centrifuge tube. The tubes were centrifuged at 2700 rpm for 20 minutes at room temperature. The lymphoctyes appeared as a layer at the interface of the saline and Lympholyte-Rat layers. The saline layer was removed and discarded. The lymphocyte containing layer from each tube was removed and transferred to a single 50 mL Falcon tube. To this tube was added 10 mL saline and the tube centrifuged for 7 minutes at 1600 rpm. The supernatant was removed, the cells resuspended in 10 mL saline, and centrifuged at 1600 rpm for 7 minutes. The supernatant was removed and the cells suspended in 1 mL saline. Using a hemocytometer, a total of 5 million lymphocytes were counted. […] To these cells was added 20 ul of an ethanolic solution of 3-[4-[2-(N,N-dihexylamino)phenyl]ethyenyl]pyridino-E-1-[^125 I]-iodo-propene (15.6 uCi) dissolved in 500 ul of saline. The cells were place vertically on a Nutator rocking apparatus and rocked gently for 20 minutes at room temperature. […] The supernatant, cells, and labeling tube were counted for radioactivity. […]
# [2] = as above; type: cell-based; details: rat, splenic lymphocytes; Example 11, trypan blue; 12% dead before labeling; read-out: dead cells after labeling
# Description: as §1
# mononuclear leukocytes = test: Mononuclear leukocyte labeling yield; type: cell-based; details: harvested from 20 mL canine blood via isolymph method
# Description: Using ^125 I-4b and ^131 I-4b, mononuclear leukocytes harvested from 20 mL canine blood via the isolymph method (sodium diatrizoste and Ficol 400, d=1.077) were labeled in 77% and 85% yields, respectively. Thus, the present compounds can label both lymphocytes and mixed leukocytes in high yields, and that the latter can be used to image sites of focal inflammation.
# mixed leukocytes = test: Mixed leukocyte labeling yield; type: cell-based, canine; details: for Mixed leukocyte labeling yield: 125I labeled, average, 10-30 μCi, 250-325 Ci/mmol
# Description: Labeling of mixed leukocytes (harvested from 20 mL canine blood) with 4a-d was performed using five different procedures: 1) labeling in Diluent C (a commercial non-ionic cell labeling media developed by Zynaxis Co. that is not approved for human use) after two saline washes of the cell pellet; 2) labeling in saline after two saline washes of the cell pellet; 3) labeling in saline with no saline washes of the cell pellet; 4 and 5) labeling in ether 10% or 100% platelet poor plasma (PPP).
# Unwashed mixed leukocytes in 1.5 mL 10% PPP in saline were also tested. […]
# This was evaporated to dryness under vacuum in a speed vac and reconstituted into 30 ul ethanol. Forty milliliters of canine blood was drawn into a 60 mL syringe containing 6.5 mL acetate-citrate-dextrose solution. To this was added 5.5 mL 2% methyl cellulose in saline. The contents of the syringe were gently mixed by several inversions of the syringe and the syringe placed vertically, needle end up, for 45 minutes to allow the red blood cells to settle. The plasma was drawn off and placed into a 50 mL Falcon tube. The tube was centrifuged at 1100 rpm for 15 minutes to pellet the leukocytes. The plasma was removed and the cells resuspended in 2 mL saline. In a 1 mL plastic microcentrifuge was placed 0.5 mL saline. […] The cells were then underlayered with 7.5 mL of platelet poor plasma and centrifuged at 1600 rpm for seven minutes to pellet the cells. The supernatant was removed, the cells resuspended in 10 mL saline, and transferred to a new tube. The supernatant, cells, and labeling tube were counted for radioactivity. The cells were centrifuged again at 1600 rpm for 7 minutes, the supernatant removed, and the cells resuspended.
# A sample of canine blood (20 mL) was drawn into a 60 mL syringe containing 3 mL acetate-citrate-dextrose (ACD) solution. To this was added 3 mL 2% methyl cellulose in saline. The contents of the syringe were gently mixed by several inversions, and the syringe was then placed vertically, needle end up, for 45 min to allow the red blood cells to settle. The plasma was drawn off and transferred to a 50 mL Falcon tube. The tube was centrifuged at 1100 rpm for 15 min to pellet the leukocytes. The plasma was removed and the cells resuspended in 10 mL saline. The tube was centrifuged at 1600 rpm for 7 min, the supernatant removed, and the cells resuspended in 10 mL saline and recentrifuged at 1600 rpm for 7 min. The supernatant was then removed and the cells resuspended in 2 mL Diluent C. Into a 1 mL plastic microcentrifuge tube was placed 0.5 mL Diluent C. […] The indium complex in Diluent C was immediately added to the leukocytes and the cells were placed vertically on a Nutator rocking apparatus and rocked gently for 30 min at room temperature. The cells were then underlayered with 5 mL of platelet poor plasma and centrifuged at 1600 rpm for 7 min to pellet the cells. The supernatant was removed, the cells resuspended in 10 mL saline, and transferred to a new tube. The supernatant, cells, and labeling tube were counted for radioactivity. The cells were centrifuged again at 1600 rpm for 7 min, the supernatant removed, and the cells resuspended.
# rat splenic lymphocytes [3] = test: Lymphocyte labeling yield, rat splenic lymphocytes; type: cell-based
# Description: (§2) Peripheral blood lymphocytes (PBLs) from dogs and rats as well as rat splenic lymphocytes were labeled in high yields with either 4a or 4b (Table 2). Viability of labeled lymphocytes was >90% both before and after radiolabeling (Trypan Blue exclusion test).
# A 400 g Sprague-Dawley rat was sacrificed to remove the spleen (1.133 g). The spleen was perfused with phosphate buffered saline to remove the lymphocytes. The lymphocytes in 10 mL PBS were split into two equal portions and each portion was layered onto 5 mL of Lympholyte-Rat (Cedar Lane Laboratories Limited, Ontario, Canada) in a separate 15 mL centrifuge tube. The tubes were centrifuged at 2700 rpm for 20 minutes at room temperature. The lymphoctyes appeared as a layer at the interface of the saline and Lympholyte-Rat layers. The saline layer was removed and discarded. The lymphocyte containing layer from each tube was removed and transferred to a single 50 mL Falcon tube. To this tube was added 10 mL saline and the tube centrifuged for 7 minutes at 1600 rpm. The supernatant was removed, the cells resuspended in 10 mL saline, and centrifuged at 1600 rpm for 7 minutes. The supernatant was removed and the cells suspended in 1 mL saline. […] […] To these cells was added 20 ul of an ethanolic solution of 3-[4-[2-(N,N-dihexylamino)phenyl]ethyenyl]pyridino-E-1-[^125 I]-iodo-propene (15.6 uCi) dissolved in 500 ul of saline. The cells were place vertically on a Nutator rocking apparatus and rocked gently for 20 minutes at room temperature. The cells were then underlayered with 7.5 mL of saline and centrifuged at 1600 rpm for seven minutes to pellet the cells. The supernatant was removed, the cells resuspended in 10 mL saline, and transferred to a new tube. The supernatant, cells, and labeling tube were counted for radioactivity. The cells were centrifuged again at 1600 rpm for 7 minutes, the supernatant removed, and the cells resuspended. After the second centrifugation, 11.9uCi (77%) of ^131 I was bound to the lymphocytes. After labeling, 12% of the cells were dead by the trypan blue exclusion test.
# [4] = system: sodium urate induced abscess in the stifle joint; test: Localization of labeled leukocytes in dogs having a sodium urate induced abscess in the stifle joint (aspirate, gamma camera images)
# Excerpt: Mixed leukocytes labeled with 4b and ^111 In-oxine labeled mixed leukocytes were compared in dogs having a sodium urate-induced inflammation in the left stifle joint. […]
# [5] = Viability of labeled lymphocytes (Trypan Blue exclusion test); type: cell-based, dog and rat; details: before and after radiolabeling
# Excerpt: as §2
compound,measurement,setting,value
"CCCCCCN(CCCCCC)c1ccc(/C=C/c2cc[n+](C/C=C/[125I])cc2)cc1 [^125 I-4b, 3-[4-[2-(N,N-dihexylamino)phenyl]ethyenyl]pyridino-E-1-[^125 I]-iodo-propene]",effect of labeling on cell survival,rat splenic lymphocytes [1],the labeling did not affect cell survival
same,cytotoxicity,[2],12%
same,Mononuclear leukocyte labeling yield,mononuclear leukocytes,77%
same,Labeling Yield,"mixed leukocytes; 1.5 ml saline, pellet not washed",80%
same,Labeling Yield,"mixed leukocytes; 1.5 ml saline, pellet washed with 1×10 mL saline",84%
same,Labeling Yield,"mixed leukocytes; 1.5 ml saline, pellet washed with 2×10 mL saline",82%
same,Labeling Yield,"mixed leukocytes; Table 3 Experiment 1, 4b 250 Ci/mmol, Diluent C after 2 × 10 mL saline washes",84%
same,Labeling Yield,"mixed leukocytes; Table 3 Experiment 2, 4b footnotes a,c (250 / 1000 Ci/mmol)",88%
same,Labeling Yield,"mixed leukocytes; unwashed, 1.5 mL 10% PPP in saline",83%
same,radioactivity bound to the lymphocytes (labeling yield),"rat splenic lymphocytes [3]; Example 11, 5 million lymphocytes, saline, 15.6 uCi, 20 min, room temperature",77%
same,radioactivity bound to the lymphocytes,"rat splenic lymphocytes [3]; Example 11, of 15.6 uCi added",11.9 uCi
same,131I/111In or 125I/111In in aspirate,[4]; Experiment 1,1.65
same,% aspirate radioactivity cell bound,[4]; Experiment 1,98%
same,% inj. dose in abscess aspirate,"[4]; Experiment 1, injected 84 μCi 125I-4b, 500 μCi 111In-oxine, Diluent C",0.594%
same,131I/111In or 125I/111In in aspirate,[4]; Experiment 2,6.0
same,% aspirate radioactivity cell bound,[4]; Experiment 2,96%
same,% inj. dose in abscess aspirate,"[4]; Experiment 2, injected 66 μCi 125I-4b, 312 μCi 111In-oxine",0.527%
same,"localization of labeled leukocytes in induced inflammatory site/abscess, compared with 111In-oxine (111In-labeled) leukocytes","[4]; sodium urate induced abscess, dog",higher degree of localization
CCCCN(CCCC)c1ccc(/C=C/c2cc[n+](C/C=C/[125I])cc2)cc1 [Compound 4a],Mixed leukocyte labeling yield,mixed leukocytes; 10% PPP in saline,41%
same,Mixed leukocyte labeling yield,mixed leukocytes; Diluent C,75%
same,Mixed leukocyte labeling yield,"mixed leukocytes; saline, 2 washes of pellet",72%
same,Mixed leukocyte labeling yield,"mixed leukocytes; saline, no washes of pellet",71%
same,Leukocyte labeling (in words),"mixed leukocytes; Diluent C, or saline with or without washes of the cell pellet",labeled leukocytes in high yield
same,viability,[5],> 90%
same,Lymphocyte labeling (in words),rat splenic lymphocytes [3]; PBLs from dogs and rats and rat splenic lymphocytes,high yields
same,Lymphocyte labeling yield,"rat splenic lymphocytes [3]; Rat spleen, Lympholyte-Rat, 63-300 × 10^6 cells, PBS, 125I, average",71%
